# Key:
# Test in all cases: biochemical
# Set-up in all cases: radiometric methyltransferase selectivity assay with tritiated SAM, per cent activity
# Conditions in all cases: read-out: % of control remaining
# NSD3 = biological target: T1, NSD3 (Homo sapiens, UniProt Q9BZ95)
# T1 sequence (Q9BZ95 1-1437): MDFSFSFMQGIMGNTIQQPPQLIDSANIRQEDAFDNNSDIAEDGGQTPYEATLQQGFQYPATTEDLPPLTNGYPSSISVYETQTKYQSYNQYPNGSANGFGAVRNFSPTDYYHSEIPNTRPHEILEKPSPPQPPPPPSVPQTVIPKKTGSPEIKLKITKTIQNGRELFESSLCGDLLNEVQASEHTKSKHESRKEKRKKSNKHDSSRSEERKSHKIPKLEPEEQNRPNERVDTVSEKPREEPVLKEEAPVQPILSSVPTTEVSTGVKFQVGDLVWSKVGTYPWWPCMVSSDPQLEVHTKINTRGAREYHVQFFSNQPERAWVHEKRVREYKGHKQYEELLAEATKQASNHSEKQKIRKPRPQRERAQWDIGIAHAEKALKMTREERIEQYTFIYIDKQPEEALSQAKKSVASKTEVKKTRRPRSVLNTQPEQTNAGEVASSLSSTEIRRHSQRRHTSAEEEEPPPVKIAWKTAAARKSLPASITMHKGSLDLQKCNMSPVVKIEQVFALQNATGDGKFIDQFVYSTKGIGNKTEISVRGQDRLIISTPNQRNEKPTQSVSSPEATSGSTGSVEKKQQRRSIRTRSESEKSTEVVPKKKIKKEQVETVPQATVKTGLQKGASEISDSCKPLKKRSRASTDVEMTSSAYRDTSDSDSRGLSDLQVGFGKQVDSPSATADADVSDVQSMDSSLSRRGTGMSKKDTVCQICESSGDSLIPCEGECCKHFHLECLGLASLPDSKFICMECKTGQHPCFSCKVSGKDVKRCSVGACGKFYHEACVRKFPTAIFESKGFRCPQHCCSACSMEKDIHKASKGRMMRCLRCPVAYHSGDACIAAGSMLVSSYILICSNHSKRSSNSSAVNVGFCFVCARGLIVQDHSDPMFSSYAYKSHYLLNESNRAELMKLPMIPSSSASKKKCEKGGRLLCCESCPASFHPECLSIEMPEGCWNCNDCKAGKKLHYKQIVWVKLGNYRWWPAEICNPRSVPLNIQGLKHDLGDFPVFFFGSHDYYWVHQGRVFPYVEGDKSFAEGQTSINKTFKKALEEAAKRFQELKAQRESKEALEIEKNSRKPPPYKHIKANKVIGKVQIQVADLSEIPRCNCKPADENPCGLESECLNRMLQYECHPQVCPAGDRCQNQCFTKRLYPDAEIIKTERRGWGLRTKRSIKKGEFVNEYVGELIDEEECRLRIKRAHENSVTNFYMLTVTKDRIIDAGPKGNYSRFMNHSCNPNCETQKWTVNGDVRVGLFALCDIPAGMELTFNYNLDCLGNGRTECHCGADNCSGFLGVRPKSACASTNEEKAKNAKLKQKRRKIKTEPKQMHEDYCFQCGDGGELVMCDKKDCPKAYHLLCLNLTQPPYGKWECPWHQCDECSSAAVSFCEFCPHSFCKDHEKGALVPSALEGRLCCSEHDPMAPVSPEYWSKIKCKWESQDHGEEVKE
# Procedure, shortened: (§1)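 Radiometric methyltransferase assays with ³H-SAM and substrate near apparent Km, compound tested at 1 and 10 μM. Methyl incorporation into biotinylated substrate read by scintillation proximity after guanidine quench; no-compound = 100%, no-enzyme = 0% activity.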
# PRMT1 = PRMT1 (Homo sapiens, UniProt Q99873)
# Procedure, shortened: as §1
# SETD2 = SETD2 (Homo sapiens, UniProt Q9BYW2)
# Procedure, shortened: as §1
# SETD8 = biological target: T2, SETD8 (Homo sapiens, UniProt Q9NQR1)
# T2 construct: gene KMT5A
# T2 sequence (Q9NQR1 1-393): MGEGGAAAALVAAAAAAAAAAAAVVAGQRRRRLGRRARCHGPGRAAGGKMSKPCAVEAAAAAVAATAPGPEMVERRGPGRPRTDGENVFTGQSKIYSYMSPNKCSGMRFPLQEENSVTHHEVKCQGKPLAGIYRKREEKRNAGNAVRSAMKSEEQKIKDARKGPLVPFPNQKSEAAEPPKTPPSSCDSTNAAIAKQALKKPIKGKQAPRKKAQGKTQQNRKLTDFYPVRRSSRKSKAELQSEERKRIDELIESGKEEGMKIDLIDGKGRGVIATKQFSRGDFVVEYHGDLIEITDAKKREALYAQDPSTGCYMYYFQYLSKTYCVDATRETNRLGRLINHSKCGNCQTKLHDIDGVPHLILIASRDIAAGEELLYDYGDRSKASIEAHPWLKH
# Procedure, shortened: as §1
# SUV420H1 = biological target: T3, SUV420H1 (Homo sapiens, UniProt Q4FZB7)
# T3 construct: gene KMT5B
# Procedure, shortened: as §1
# T3 sequence (Q4FZB7 whole entry): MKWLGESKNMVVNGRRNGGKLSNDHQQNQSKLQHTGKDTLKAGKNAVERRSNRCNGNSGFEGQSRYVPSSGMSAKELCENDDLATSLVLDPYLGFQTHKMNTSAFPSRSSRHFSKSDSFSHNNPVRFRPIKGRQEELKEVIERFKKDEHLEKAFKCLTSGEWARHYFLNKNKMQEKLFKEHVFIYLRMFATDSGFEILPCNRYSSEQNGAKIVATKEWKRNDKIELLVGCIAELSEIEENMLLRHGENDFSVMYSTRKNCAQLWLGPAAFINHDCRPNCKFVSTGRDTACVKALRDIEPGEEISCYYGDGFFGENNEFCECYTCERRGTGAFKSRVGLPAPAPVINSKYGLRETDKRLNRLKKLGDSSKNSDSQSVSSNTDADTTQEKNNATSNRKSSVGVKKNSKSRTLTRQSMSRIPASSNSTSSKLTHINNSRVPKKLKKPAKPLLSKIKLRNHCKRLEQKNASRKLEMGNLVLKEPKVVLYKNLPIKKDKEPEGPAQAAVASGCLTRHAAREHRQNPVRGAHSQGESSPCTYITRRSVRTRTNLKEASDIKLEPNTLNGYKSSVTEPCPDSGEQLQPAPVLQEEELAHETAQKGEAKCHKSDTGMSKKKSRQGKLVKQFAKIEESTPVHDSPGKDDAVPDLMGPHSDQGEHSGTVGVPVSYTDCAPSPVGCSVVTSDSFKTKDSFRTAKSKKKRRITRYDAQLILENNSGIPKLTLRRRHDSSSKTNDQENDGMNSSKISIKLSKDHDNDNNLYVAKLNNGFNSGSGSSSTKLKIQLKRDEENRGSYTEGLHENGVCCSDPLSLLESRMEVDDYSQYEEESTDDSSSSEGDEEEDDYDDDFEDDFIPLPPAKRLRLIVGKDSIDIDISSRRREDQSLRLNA
# PRMT1, sequence (Q99873 whole entry): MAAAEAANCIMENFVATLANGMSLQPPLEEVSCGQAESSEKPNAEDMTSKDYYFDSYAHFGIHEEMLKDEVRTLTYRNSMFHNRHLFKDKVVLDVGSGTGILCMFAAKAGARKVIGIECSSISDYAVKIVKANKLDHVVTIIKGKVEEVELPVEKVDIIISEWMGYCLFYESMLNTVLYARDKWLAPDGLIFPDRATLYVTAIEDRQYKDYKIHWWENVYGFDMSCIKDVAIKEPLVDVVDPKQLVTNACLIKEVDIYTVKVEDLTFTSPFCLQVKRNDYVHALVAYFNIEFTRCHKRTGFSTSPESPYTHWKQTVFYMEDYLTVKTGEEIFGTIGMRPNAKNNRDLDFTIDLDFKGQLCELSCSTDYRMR
# SETD2, sequence (Q9BYW2 whole entry): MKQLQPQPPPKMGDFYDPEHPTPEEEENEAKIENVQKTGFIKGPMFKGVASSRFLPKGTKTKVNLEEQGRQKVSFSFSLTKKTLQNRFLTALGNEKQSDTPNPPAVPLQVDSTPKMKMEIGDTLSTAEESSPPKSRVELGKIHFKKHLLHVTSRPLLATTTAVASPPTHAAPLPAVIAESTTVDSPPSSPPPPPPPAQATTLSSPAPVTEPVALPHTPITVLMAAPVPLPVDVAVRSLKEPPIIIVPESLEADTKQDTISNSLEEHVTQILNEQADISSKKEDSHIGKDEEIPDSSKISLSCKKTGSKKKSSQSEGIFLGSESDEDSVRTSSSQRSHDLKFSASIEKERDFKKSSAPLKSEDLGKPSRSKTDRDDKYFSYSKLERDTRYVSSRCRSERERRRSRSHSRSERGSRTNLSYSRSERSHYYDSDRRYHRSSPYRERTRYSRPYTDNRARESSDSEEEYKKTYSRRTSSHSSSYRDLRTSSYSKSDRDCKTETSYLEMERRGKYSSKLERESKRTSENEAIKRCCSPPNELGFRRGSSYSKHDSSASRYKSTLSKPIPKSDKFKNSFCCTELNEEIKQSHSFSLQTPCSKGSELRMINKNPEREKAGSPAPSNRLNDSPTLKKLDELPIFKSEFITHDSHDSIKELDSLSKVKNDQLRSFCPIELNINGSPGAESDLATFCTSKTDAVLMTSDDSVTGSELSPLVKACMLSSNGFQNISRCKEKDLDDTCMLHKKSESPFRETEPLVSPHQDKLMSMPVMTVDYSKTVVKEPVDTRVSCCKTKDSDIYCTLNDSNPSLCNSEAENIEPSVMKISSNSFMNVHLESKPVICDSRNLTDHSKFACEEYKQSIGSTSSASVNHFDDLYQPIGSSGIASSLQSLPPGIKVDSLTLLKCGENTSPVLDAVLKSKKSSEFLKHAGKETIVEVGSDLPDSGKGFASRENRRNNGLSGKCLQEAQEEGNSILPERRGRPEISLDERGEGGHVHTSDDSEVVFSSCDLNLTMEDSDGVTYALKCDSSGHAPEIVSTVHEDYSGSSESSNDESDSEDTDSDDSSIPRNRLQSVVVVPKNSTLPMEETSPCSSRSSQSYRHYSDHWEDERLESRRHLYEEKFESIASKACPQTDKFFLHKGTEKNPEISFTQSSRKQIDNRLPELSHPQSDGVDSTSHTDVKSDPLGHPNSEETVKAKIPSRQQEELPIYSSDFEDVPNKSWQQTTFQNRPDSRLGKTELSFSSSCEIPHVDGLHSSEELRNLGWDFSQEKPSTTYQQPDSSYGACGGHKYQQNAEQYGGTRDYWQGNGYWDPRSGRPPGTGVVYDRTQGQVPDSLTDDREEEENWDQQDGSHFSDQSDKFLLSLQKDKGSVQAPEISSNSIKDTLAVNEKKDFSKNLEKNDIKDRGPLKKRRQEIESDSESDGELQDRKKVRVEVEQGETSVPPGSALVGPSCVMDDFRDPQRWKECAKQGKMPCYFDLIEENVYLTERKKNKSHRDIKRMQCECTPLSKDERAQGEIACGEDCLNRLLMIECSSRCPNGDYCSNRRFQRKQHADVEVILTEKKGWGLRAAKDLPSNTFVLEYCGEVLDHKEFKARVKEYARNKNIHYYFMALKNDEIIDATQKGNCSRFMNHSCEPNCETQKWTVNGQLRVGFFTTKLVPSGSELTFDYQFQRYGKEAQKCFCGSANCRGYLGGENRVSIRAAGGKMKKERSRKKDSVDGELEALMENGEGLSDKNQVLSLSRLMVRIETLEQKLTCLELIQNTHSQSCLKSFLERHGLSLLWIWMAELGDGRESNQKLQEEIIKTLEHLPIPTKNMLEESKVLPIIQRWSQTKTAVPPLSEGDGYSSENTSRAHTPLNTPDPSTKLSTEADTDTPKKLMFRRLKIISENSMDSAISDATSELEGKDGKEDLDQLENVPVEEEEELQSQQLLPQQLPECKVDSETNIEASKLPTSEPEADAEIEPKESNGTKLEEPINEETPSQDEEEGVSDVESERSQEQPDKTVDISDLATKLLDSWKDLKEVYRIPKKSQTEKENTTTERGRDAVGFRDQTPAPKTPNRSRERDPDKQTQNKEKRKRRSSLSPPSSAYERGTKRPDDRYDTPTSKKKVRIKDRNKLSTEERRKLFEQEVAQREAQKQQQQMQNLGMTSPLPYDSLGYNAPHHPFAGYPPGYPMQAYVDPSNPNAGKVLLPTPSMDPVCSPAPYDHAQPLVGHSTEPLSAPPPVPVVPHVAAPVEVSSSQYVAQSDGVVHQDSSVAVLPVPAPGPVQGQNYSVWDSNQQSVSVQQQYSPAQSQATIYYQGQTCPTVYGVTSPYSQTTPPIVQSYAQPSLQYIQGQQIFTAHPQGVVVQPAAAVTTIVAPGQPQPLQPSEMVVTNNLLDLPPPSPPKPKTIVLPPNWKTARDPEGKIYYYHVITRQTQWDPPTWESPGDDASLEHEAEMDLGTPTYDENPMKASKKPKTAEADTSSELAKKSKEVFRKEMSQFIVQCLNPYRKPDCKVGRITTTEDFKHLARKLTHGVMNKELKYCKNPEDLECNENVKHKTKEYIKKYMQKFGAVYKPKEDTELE
Structure (SMILES),remaining activity at 1 µM (NSD3) [%],remaining activity at 10 µM (NSD3) [%],remaining activity at 1 µM (PRMT1) [%],remaining activity at 10 µM (PRMT1) [%],remaining activity at 1 µM (SETD2) [%],remaining activity at 10 µM (SETD2) [%],remaining activity at 1 µM (SETD8) [%],remaining activity at 10 µM (SETD8) [%],remaining activity at 1 µM (SUV420H1) [%],remaining activity at 10 µM (SUV420H1) [%]
CC1(C)O[C@@H]2[C@H](O1)[C@@H](CSCCCCNCc1cccc(-c3ccc(Cl)cc3)c1)O[C@H]2n1cnc2c(N)ncnc21 [SGC8158N],100,97,94,91,103,97,99,100,99,102
Nc1ncnc2c1ncn2[C@@H]1O[C@H](CSCCCCNCc2cccc(-c3ccc(Cl)cc3)c2)[C@@H](O)[C@H]1O [SGC8158],97,95,104,67,95,86,101,102,96,87

# — article PMC7224190, “Pharmacological inhibition of PRMT7 links arginine monomethylation to the cellular stress response” (Nature Communications, 2020)
